Test results as given in paper PMC8364251 (Pharmacological Research, 2021).

Legend:
Type in all cases: cell-based, SARS-CoV-2
[1] = tested on: N439K mutant S-pseudotyped lentivirus
[2] = tested on: Y453F mutant S-pseudotyped lentivirus
[3] = tested on: N501Y mutant S-pseudotyped lentivirus

O=C(O[C@@H]1Cc2c(O)cc(O)cc2O[C@@H]1c1cc(O)c(O)c(O)c1)c1cc(O)c(O)c(O)c1 [EGCG, epigallocatechin gallate]
inhibition of mutant pseudovirus infection [1]: effectively inhibited the infection of all mutants
inhibition of mutant pseudovirus infection [2]: effectively inhibited the infection of all mutants
inhibition of mutant pseudovirus infection [3]: effectively inhibited the infection of all mutants
